“Also recorded” adds a separate entry of the source.
How the values were obtained:
[1] = system: healthy human gingival epithelial control cells (OBA9); experiment: Cell viability/proliferation assay (WST-1) in healthy OBA9 cells; assay type: cell-based; conditions: 0.1 μg/ml and 1 μg/ml; WST-1
Excerpt: (§1) In specific examples, colorimetric assays can be used to assess cellular viability and proliferation of cell cultures, such as MTT, WST-1, and resazurin assays. See, e.g., Präbst et al., Methods Mol Biol. 2017:1601:1-17.
(§2) Various cell lines were exposed to PGDHC, including human gingival squamous carcinoma cells (OECM1), tongue squamous carcinoma cells (SCC4, SCC9), and healthy human gingival epithelial control cells (OBA9) in vitro.
(§3) LCL521 is a dose-dependent acid ceramidase inhibitor. Comparison of the concentration-dependent effects of an acid ceramidase inhibitor, LCL521 (MedChemExpress®), and the bacterial-isolated a15:0-15:0PE phospholipid on the viability of healthy human epithelial, OBA9, and oral squamous cancer cell lines, OECM1 and SCC9, in vitro was evaluated. […] (FIG. 15A). […] (FIG. 15B).

[2] = system: NFkB; experiment: NFkB mRNA expression in SCC4 cells; assay type: cell-based, human; conditions: relative to control cells
Description: Expression of these genes was also assessed in human tongue squamous cell carcinoma SCC4 cells.

[3] = system: ASAH1; experiment: ASAH1 (acid ceramidase) mRNA expression in OECM1 cells; assay type: cell-based, human; conditions: 0.1 or 1 μg/ml of PGDHC
Excerpt: (§4) Exemplary ceramidase genes, the expression of which can be measured to determine upregulation, include but are not limited to ASAH1, ACER2, and ACER3. A determination of ceramidase gene expression can be made according to methods available to one of skill in the art. For example, Yamada et al., J Cell Mol Med. 2023 May;27(9):1290-1295 and Kyriakou et al., Int. J. Mol. Sci. 2020, 21(5):1607 describes measuring the mRNA levels of ceramidases by RNA extraction and RT-PCR.
(§5) To test this hypothesis, it was first determined whether artificially elevated intracellular concentration of ceramide species affect the expression of acid/ASAH1, neutral/ASAH2, and alkaline1-3/ACER1-3 ceramidases in oral squamous cell carcinoma cells using C6-ceramide. Applicant previously reported that C6-ceramide serves as a positive control for PGDHC-mediated inflammation (Kanzaki et al., Biochim Biophys Acta Mol Cell Biol Lipids. 2017 May;1862(5):452-462) and promotes the intracellular accumulation of ceramide in cancer cells. See, e.g., Zhang et al., Front Plant Sci. 2020 Feb. 26:11:145, Zhai et al., Biochem Biophys Res Commun. 2015 December;468(1-2):274-80, Wilhelm et al., Cancers (Basel). 2021 Jan. 13;13(2):270, and Chapman et al., Biochem Pharmacol. 2010 Aug. 1;80(3):308-15.
(§6) Next, the effect of PGDHC on ceramidase gene expression was determined. OECM1 and SCC4 cells were exposed to 0.1 or 1 μg/ml of PGDHC. The mRNA levels of ceramidases were then measured following PGDHC exposure. PGDHC inhibited the expression of ASAH1 and ACER2 mRNAs in OECM1 (FIG. 8). […] See, e.g., Vijayan et al., J Adv Res. 2023 Dec. 21:S2090-1232(23)00403-4, Doan et al., Oncotarget. 2017 Nov. 7;8(68):112662-112674., Lai et al., Sci Rep. 2021 May 27;11(1):11221, Liu et al., Cancer Sci. 2020 July;111(7):2259-2274., and Liu et al., Front Genet. 2023 Mar. 1:14:1148437.
(§7) To elucidate the effects of C16:0 and dh-C16:0 on oral squamous cell carcinoma, the ability of exogenous C16:0 and dh-C16:0 to modulate proliferation and ceramidase expression in OECM1 cells was determined. […] In contrast, no effect of C16:0 on ASAH1 and ACER2 mRNA expressions.
We evaluated the effect of a15:0-i15:0 phosphoethanolamine phospholipid (FIG. 1D), isolated from the gut bacteria Akkermansia muciniphila on OSCC cells.

[4] = system: SCC9 cells; experiment: Untargeted metabolomic pathway analysis (LC/MS) in SCC9 cells; assay type: cell-based, human; conditions: 1 μg/ml for 6 h
Excerpt: The plots in FIGS. 16A and 16B display the enriched pathways identified in the analysis, with their corresponding significance levels represented on the x-axis. The significance threshold (p<0.05) is denoted by the dashed line. […] Additionally, the color of the dots represents the enrichment, which indicates the extent to which the metabolites in the pathway were clustered amongst the compounds with the most positive fold-changes (positive enrichments), the most negative fold-changes (negative enrichments), or uniformly distributed across high and low fold-change compounds (enrichment values near 0.0). […] Polar and lipid metabolites were analyzed with hydrophilic interaction chromatography (HILIC/MS) and liquid chromatography (LC/MS), respectively. Mass spectrometry analysis was completed with a mass range of 67-1500 Da with 1 scan/sec and a mass resolution of 120,000 in both positive and negative ionization mode. The MS/MS mass-spectrometry data were acquired in a data-dependent iterative fashion with a 1.3 m/z isolation window. Based upon this metabolomic analysis, phosphoglycerol dihydroceramide (PGDHC) isolated from Porphyromonas gingivalis inhibits metabolomic pathways essential for cell survival in oral squamous cell carcinoma cells (OSCC). […]
SCC9 were exposed to a15:0-i15:0PE (1 μg/ml) for 6 h in vitro. […] The significance threshold (p<0.05) is denoted by the grey dashed line. […] Additionally, the color of the dots represents the enrichment, which indicates the extent to which the metabolites in the pathway were clustered amongst the compounds with the most positive fold-changes (positive enrichments), the most negative fold-changes (negative enrichments), or uniformly distributed across high and low fold-change compounds (enrichment values near 0.0).

[5] = system: ACER2; experiment: ACER2 mRNA expression in OECM1 cells; assay type: cell-based, human; conditions: 0.1 or 1 μg/ml of PGDHC
Excerpt: as §4, §5, §6, §7

[6] = system: p-STAT3; experiment: Western blot of p-STAT3 in OECM1 cells; assay type: cell-based, human; conditions: time course 15 minutes to 24 hours, compared to sham control
Description: (§8) To determine the effect of PGDHC on cell markers involved in metastasis, the protein levels of p-STAT3, EMT markers, E-cadherin, N-cadherin, and Vimentin in OECM1 cells following in vitro exposure to PGDHC were determined by Western blot assay.

[7] = system: tongue squamous carcinoma cells (SCC9); experiment: Cell viability/proliferation assay (WST-1) in SCC9 cells; assay type: cell-based, human; conditions: 0.1 μg/ml and 1 μg/ml; WST-1
Excerpt: as §1, §2, §3

[8] = system: N-cadherin; experiment: Western blot of N-cadherin in OECM1 cells; assay type: cell-based, human; conditions: 24 h of treatment
Description: as §8

[9] = system: human gingival squamous carcinoma cells (OECM1); experiment: Cell viability/proliferation assay (WST-1) in OECM1 cells; assay type: cell-based; conditions: each tested concentration (0.1 μg/ml and 1 μg/ml); WST-1
Excerpt: as §1, §2, §7, §3

Substance: phosphoglycerol dihydroceramide [PGDHC]
- proliferation of healthy control OBA9 cells [1]: did not have a detectable effect; also recorded: did not have an observable effect
- NFkB mRNA in SCC4 cells [2]: significantly diminished
- expression of ASAH1 mRNA in OECM1 [3]: inhibits; also recorded: dramatically inhibited
- Warburg effect in SCC9 cells [4]: altered
- arginine and proline metabolism in SCC9 cells [4]: diminished accumulation; also recorded: inhibits
- de novo triacylglycerol biosynthesis in SCC9 cells [4]: diminished accumulation; also recorded: inhibits
- folate metabolism in SCC9 cells [4]: diminished accumulation; also recorded: inhibits
- glycine and serine metabolism in SCC9 cells [4]: diminished accumulation; also recorded: inhibits
- level of ATP in SCC9 cells (relative abundance) [4]: altered
- level of glucose in SCC9 cells (relative abundance) [4]: altered
- mitochondrial electron transport in SCC9 cells [4]: diminished accumulation; also recorded: inhibits
- expression of ACER2 mRNA in OECM1 [5]: inhibited
- levels of p-STAT3 protein in OECM1 cells [6]: no effect
- proliferation of SCC9 cells [7]: did not have an observable effect
- protein level of N-cadherin in OECM1 cells [8]: little to no detectable effect
- viability of OECM1 cells [9]: significantly inhibited

Reference: patent US20250312365A1, “METHODS FOR INHIBITION OF SQUAMOUS CARCINOMA CELLS USING CERAMIDE MODULATORS” (The Trustees of Indiana University, priority 2024, published 2025)
